Patent US7989464B2, “mGluR1 antagonists as therapeutic agents” (Schering Corporation, priority 2004, dated 2011)
Where two headings read alike, the source gives them in different places.

Molecular target: T1, hmGluR1 receptor (Homo sapiens, UniProt Q13255)
T1 construct: expressed in transfected cells
Test: IC50 determination: intracellular calcium mobilization (FLIPR) upon Quisqualate stimulation in CHO cells stably expressing hmGluR1
Format: cell-based
Details: against Quisqualate 1 μM (EC80)
Procedure, shortened: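 CHO cells stably expressing hmGluR1 were kept overnight in DMEM high glucose with GPT and 1 mM pyruvate, then loaded 2 h with Calcium 3 dye.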

[1] = FLIPR calcium mobilization, read-out: IC50 Class
[2] = class symbols, read-out: mGIuR 1 IC50
[3] = FLIPR calcium mobilization, read-out: mGluR1 IC50

T1 sequence (Q13255 19-1194): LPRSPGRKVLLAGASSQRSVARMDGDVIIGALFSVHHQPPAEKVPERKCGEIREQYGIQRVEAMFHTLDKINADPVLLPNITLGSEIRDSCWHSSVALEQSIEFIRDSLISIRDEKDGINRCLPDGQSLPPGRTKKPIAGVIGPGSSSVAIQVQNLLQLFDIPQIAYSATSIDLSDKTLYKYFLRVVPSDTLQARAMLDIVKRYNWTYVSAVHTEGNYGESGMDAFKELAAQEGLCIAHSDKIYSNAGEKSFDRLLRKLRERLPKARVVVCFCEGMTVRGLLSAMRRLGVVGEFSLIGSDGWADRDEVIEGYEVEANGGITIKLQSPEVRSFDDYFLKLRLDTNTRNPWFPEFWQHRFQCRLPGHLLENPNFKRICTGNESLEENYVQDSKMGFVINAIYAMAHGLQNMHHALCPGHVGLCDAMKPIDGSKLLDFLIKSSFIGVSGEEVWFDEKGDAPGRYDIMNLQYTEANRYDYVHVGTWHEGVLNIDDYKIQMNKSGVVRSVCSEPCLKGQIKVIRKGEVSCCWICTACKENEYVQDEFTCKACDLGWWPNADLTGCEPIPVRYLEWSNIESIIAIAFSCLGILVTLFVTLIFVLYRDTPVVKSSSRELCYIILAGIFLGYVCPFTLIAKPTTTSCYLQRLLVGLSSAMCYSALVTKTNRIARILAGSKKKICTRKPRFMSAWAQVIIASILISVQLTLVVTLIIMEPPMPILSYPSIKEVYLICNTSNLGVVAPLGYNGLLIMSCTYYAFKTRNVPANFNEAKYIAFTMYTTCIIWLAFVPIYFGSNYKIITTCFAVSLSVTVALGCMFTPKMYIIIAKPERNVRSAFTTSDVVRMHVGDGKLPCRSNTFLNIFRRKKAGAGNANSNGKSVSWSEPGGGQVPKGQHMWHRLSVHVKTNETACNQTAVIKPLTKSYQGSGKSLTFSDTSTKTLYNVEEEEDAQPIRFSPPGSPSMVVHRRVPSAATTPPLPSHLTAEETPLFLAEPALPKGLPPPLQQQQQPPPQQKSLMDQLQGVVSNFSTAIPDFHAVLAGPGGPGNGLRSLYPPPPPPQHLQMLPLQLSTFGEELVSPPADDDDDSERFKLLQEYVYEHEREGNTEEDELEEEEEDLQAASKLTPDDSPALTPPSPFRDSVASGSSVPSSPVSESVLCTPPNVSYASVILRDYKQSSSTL

Row | SMILES | IC50 [1] [nM] | IC50 [2] [nM] | other results
1 | CC(O)CCNc1ccnc2sc3c(=O)n(-c4ccc(Br)cc4)cnc3c12 (stereo not drawn) [28HO] | < 50 | – | –
2 | CN(C)c1ccnc2sc3c(=O)n(CC4CC4)cnc3c12 [15B] | – | 150 to 1000 | –
3 | COc1ccnc2sc3c(=O)n(-c4ccc(Cl)cc4)cnc3c12 [28FS] | < 50 | – | –
4 | CC#CCNc1ccnc2sc3c(=O)n(-c4ccc(C)cc4)cnc3c12 [28AD] | – | 50 to 150 | –
5 | O=c1c2sc3nccc(NC4CC4)c3c2ncn1-c1cccc(Cl)c1 [28CB] | 50 to 150 | – | –
6 | CCCN(CCC)c1ccnc2sc3c(=O)n(C4CCCCC4)cnc3c12 [28K] | – | > 1000 | –
7 | Cc1ccc(-n2cnc3c(sc4nc(-c5cccs5)cc(C(F)(F)F)c43)c2=O)cc1 [P-13] | – | 150 to 1000 | –
8 | CCNc1ccnc2sc3c(=O)n(-c4ccc(OC)cc4F)cnc3c12 [28BJ] | 50 to 150 | – | –
9 | Cc1ccc(-n2cnc3c(sc4nccc(NCC(C)(C)C)c43)c2=O)cc1 [28ES] | > 1000 | – | –
10 | CCc1ccnc2sc3c(=O)n(-c4ccc(Cl)cc4)cnc3c12 [29K] | < 50 | – | –
11 | COc1ccc(-n2cnc3c(sc4nc(C)cc(C)c43)c2=O)cc1 [P-15] | – | 150 to 1000 | –
12 | CSc1ccc(-n2cnc3c(sc4nccc(N(C)C)c43)c2=O)cc1 [7CQ] | – | < 50 | –
13 | CN(C)c1ccnc2sc3c(=O)n(CCN4CCCCC4)cnc3c12 [15O] | – | > 1000 | –
14 | O=c1c2sc3nccc(Oc4ccccc4)c3c2ncn1-c1ccc(Cl)cc1 [compound 176] | > 1000 | – | –
15 | CN(C)c1ccnc2sc3c(=O)n(-c4ccc(O)c(F)c4)cnc3c12 [7CT] | – | < 50 | –
16 | COc1ccc(-n2cnc3c(sc4nccc(NC5CC5)c43)c2=O)cc1 [28AL] | – | < 50 | –
17 | CCCCNc1ccnc2sc3c(=O)n(C4CCCCC4)cnc3c12 [28R] | – | 150 to 1000 | –
18 | C=C(C)CNc1ccnc2sc3c(=O)n(-c4ccc5c(c4)OCO5)cnc3c12 [28FG] | 150 to 1000 | – | –
19 | COc1ccc(-n2cnc3c(sc4nccc(Cl)c43)c2=O)cc1 [compound 195] | 150 to 1000 | – | –
20 | COc1ccc(-n2cnc3c(sc4nccc(N(C)C)c43)c2=O)cc1OC [7AD] | – | > 1000 | –
21 | COc1cc(-n2cnc3c(sc4nccc(N(C)C)c43)c2=O)cc(OC)c1OC [7AF] | – | > 1000 | –

Row | SMILES | IC50 [1] [nM] | IC50 [2] [nM] | other results
22 | COc1ccc(-n2cnc3c(sc4nc(C)cc(N(C)C)c43)c2=O)cc1F [7CL] | – | 50 to 150 | –
23 | CCOc1ccc(-n2cnc3c(sc4nccc(N(C)C)c43)c2=O)cc1 [7AE] | – | 150 to 1000 | –
24 | CN(C)c1ccnc2sc3c(=O)n(-c4ccc(C#N)cc4)cnc3c12 [7K] | – | < 50 | –
25 | COc1ccccc1-n1cnc2c(sc3nc(N4CCOCC4)c4c(c32)CC(C)(C)OC4)c1=O [P-5] | – | 150 to 1000 | –
26 | O=c1c2sc3nccc(N4CC(O)C4)c3c2ncn1-c1ccc(Cl)cc1 [28DI] | 150 to 1000 | – | –
27 | O=c1c2sc3nccc(NCCCCO)c3c2ncn1-c1ccc(Br)cc1 [28GV] | < 50 | – | –
28 | CCN(C)c1ccnc2sc3c(=O)n(-c4ccc(C)cc4)cnc3c12 [28AK] | – | < 50 | –
29 | CC(=O)Nc1cccc(-n2cnc3c(sc4nccc(N(C)C)c43)c2=O)c1 [7CI] | – | 150 to 1000 | –
30 | CNc1c(Cl)cnc2sc3c(=O)n(-c4ccc(OC)cc4)cnc3c12 [compound 198] | < 50 | – | –
31 | CN(C)c1ccnc2sc3c(=O)n(-c4ccc5c(c4)OCCCO5)cnc3c12 [7CH] | – | 150 to 1000 | –
32 | CN(C)c1ccnc2sc3c(=O)n(-c4ccc(Br)c(F)c4)cnc3c12 [7DV] | – | < 50 | IC50 [3]: 1.71 nM
33 | CNc1ccnc2sc3c(=O)n(-c4ccc5ncsc5c4)cnc3c12 [7BZ] | – | < 50 | –
34 | Cc1ccc(-n2cnc3c(sc4nccc(C(N)=O)c43)c2=O)cc1 [compound 76] | – | > 1000 | –
35 | CN(C)c1ccnc2sc3c(=O)n(-c4ccc5nsnc5c4)cnc3c12 [7BN] | – | < 50 | –
36 | Cc1ccc(-n2cnc3c(sc4nccc(N5CC[C@@H](O)C5)c43)c2=O)cc1 [28CV] | > 1000 | – | –
37 | CCOC(=O)N1CCC(n2cnc3c(sc4nccc(N(C)C)c43)c2=O)CC1 [7J] | – | > 1000 | –
38 | CN(C)c1ccnc2sc3c(=O)n(-c4ccc(F)cc4)cnc3c12 [7G] | – | < 50 | –
39 | COc1cc(Cl)nc2sc3c(=O)n(C4CCCCC4)cnc3c12 [compound 78] | – | > 1000 | –
40 | CC(CO)Nc1ccnc2sc3c(=O)n(-c4ccc(Br)cc4)cnc3c12 (stereo not drawn) [28HC] | 50 to 150 | – | –
41 | CN(C)c1c(Cl)cnc2sc3c(=O)n(-c4ccc(Cl)cc4)cnc3c12 [compound 199] | < 50 | – | –
42 | CN(C)c1ccnc2sc3c(=O)n(-c4cccs4)cnc3c12 [15AB] | – | < 50 | –

Row | SMILES | IC50 [1] [nM] | IC50 [2] [nM] | other results
43 | COc1ccc(-n2cnc3c(sc4nccc(OC)c43)c2=O)cc1F [28FX] | 150 to 1000 | – | –
44 | COc1cc(N(C)C)c2c(n1)sc1c(=O)n(-c3ccc(C)cc3)cnc12 [compound 58] | – | < 50 | –
45 | COC(=O)c1sccc1-n1cnc2c(sc3nccc(N(C)C)c32)c1=O [7AU] | – | > 1000 | –
46 | Cc1cc(N(C)C)c2c(n1)sc1c(=O)n(-c3ccc4c(c3)CCO4)cnc12 [7CN] | – | 50 to 150 | –
47 | Cc1noc2cc(F)c(-n3cnc4c(sc5nccc(N(C)C)c54)c3=O)cc12 [28EL] | > 1000 | – | –
48 | CN(C)c1ccnc2sc3c(=O)n(-c4ccc5nc[nH]c5c4)cnc3c12 [7AW] | – | 50 to 150 | –
49 | CCCNc1ccnc2sc3c(=O)n(C4CCCCC4)cnc3c12 [28Q] | – | 50 to 150 | –
50 | O=c1c2sc3nccc(NCCO)c3c2ncn1-c1ccc2occc2c1 [28BD] | < 50 | – | –
51 | COc1ccc(-n2cnc3c(sc4nccc(NCC5CC5)c43)c2=O)cc1 [28AX] | – | 150 to 1000 | –
52 | CCNc1ccnc2sc3c(=O)n(-c4ccc(OC)c(F)c4)cnc3c12 [28FZ] | < 50 | – | –
53 | CN(C)c1ccnc2sc3c(=O)n(-c4ccc5c(c4)OCO5)cnc3c12 [7A] | – | < 50 | –
54 | CN(C)c1ccnc2sc3c(=O)n(Cc4ccc(Cl)c(Cl)c4)cnc3c12 [7S] | – | > 1000 | –
55 | COC[C@H](C)Nc1ccnc2sc3c(=O)n(-c4ccc(Br)cc4)cnc3c12 [28GZ] | > 1000 | – | –
56 | CN(C)c1ccnc2sc3c(=O)n(-c4ccc(OC(F)(F)F)cc4)cnc3c12 [7Y] | – | < 50 | –
57 | CN(C)c1cc(N2CCCC2)nc2sc3c(=O)n(C4CCCCC4)cnc3c12 [compound 85] | – | > 1000 | –
58 | O=c1c2sc3nc(Cl)ccc3c2ncn1-c1ccccc1 [compound 14] | – | > 1000 | –
59 | CNc1ccnc2sc3c(=O)n(-c4ccc5c(c4)OCO5)cnc3c12 [7CB] | – | < 50 | –
60 | CSCCNc1ccnc2sc3c(=O)n(-c4ccc(C)cc4)cnc3c12 [28EV] | < 50 | – | –
61 | CN(C)c1c(Cl)ncc2sc3c(=O)n(-c4ccc(Cl)cc4)cnc3c12 [compound 54] | – | 150 to 1000 | –

Continued, in another order:

Row | IC50 [1] [nM] | IC50 [2] [nM] | SMILES | other results
62 | < 50 | – | C=CCOc1ccnc2sc3c(=O)n(-c4ccc(Br)cc4)cnc3c12 [66J] | –
63 | < 50 | – | C#CCNc1ncnc2sc3c(=O)n(-c4ccc(OC)cc4)cnc3c12 [95EI] | –
64 | 150 to 1000 | – | Cc1ccc(-n2cnc3c(sc4ncc(C(N)=O)cc43)c2=O)cc1 [205C] | –
65 | 50 to 150 | – | C#CCNc1ncnc2sc3c(=O)n(-c4ccc5c(c4)OCCO5)cnc3c12 [95EN] | –
66 | 150 to 1000 | – | CN(C)c1cccc2sc3c(=O)n(-c4cc(F)cc(F)c4)cnc3c12 [103Q] | –
67 | 150 to 1000 | – | C=C(C)CNc1ncnc2sc3c(=O)n(-c4ccncc4)cnc3c12 [95FJ] | –
68 | < 50 | – | O=c1c2sc3ncnc(NC4CC4)c3c2ncn1-c1ccc2c(c1)CCO2 [95DK] | –
69 | > 1000 | – | CNc1nc(N)c2c(n1)sc1c(=O)n(-c3ccc(C)cc3)cnc12 [71B] | –
70 | – | > 1000 | CNc1ccnc2c1c1ncn(-c3ccc(C)cc3)c(=O)c1n2Cc1ccc(OC)cc1 [134I] | –
71 | < 50 | – | C=C(C)CNc1ncnc2sc3c(=O)n(-c4ccccc4)cnc3c12 [95FH] | –
72 | > 1000 | – | Cc1ccc(-n2cnc3c(sc4cnnc(NCC(F)(F)F)c43)c2=O)cc1 [167G] | –
73 | – | < 50 | C=CCNc1ccnc2sc3c(=O)n(-c4ccc(C)cc4)cnc3c12 [72I] | –
74 | – | > 1000 | O=C(Nc1ccnc2sc3c(=O)n(C4CCCCC4)cnc3c12)C1CCC1 [73D] | –
75 | – | < 50 | C=CCNc1ccnc2sc3c(=O)n(C4CCCCC4)cnc3c12 [72B] | –
76 | 150 to 1000 | – | CN(C)c1cccc2sc3c(=O)n(-c4ccc(F)c(F)c4)cnc3c12 [103P] | –
77 | – | 150 to 1000 | CCCCc1nc2c(sc3nccc(N(C)C)c32)c(=O)n1-c1ccc(C)cc1 [116C] | –
78 | – | 150 to 1000 | CCCCc1nc2c(sc3nccc(N(C)C)c32)c(=O)n1-c1ccc(OC)cc1 [116G] | –
79 | – | < 50 | CCN(C)c1ncnc2sc3c(=O)n(-c4ccc(OC(F)(F)F)cc4)cnc3c12 [95R] | –

Row | IC50 [1] [nM] | IC50 [2] [nM] | SMILES | other results
80 | 150 to 1000 | – | O=c1c2sc3nccc(NC4CC4)c3c2ncn1-c1ccc(C2CC2)cc1 [137I] | –
81 | > 1000 | – | Cc1ccc(-n2cnc3c(sc4nc(C(F)(F)F)nc(N)c43)c2=O)cc1 [71E] | –
82 | > 1000 | – | COCCn1cnc2c(sc3ncnc(NCC(F)(F)F)c32)c1=O [95DY] | –
83 | < 50 | – | C=C(C)CNc1ncnc2sc3c(=O)n(-c4ccc(Br)cc4)cnc3c12 [95FA] | –
84 | – | < 50 | CCN(C)c1ncnc2sc3c(=O)n(-c4ccc5ncsc5c4)cnc3c12 [95I] | –
85 | 150 to 1000 | – | CNc1nncc2sc3c(=O)n(-c4ccc(C)cc4)cnc3c12 [167H] | –
86 | < 50 | – | CNc1ncnc2sc3c(=O)n(-c4ccc(OC)c(F)c4)cnc3c12 [95BF] | –
87 | – | 150 to 1000 | CN(C)c1cccc2sc3c(=O)n(-c4ccccc4)cnc3c12 [103C] | –
88 | < 50 | – | C=CCNc1ncnc2sc3c(=O)n(-c4ccc(Cl)cc4)cnc3c12 [95BP] | IC50 [3]: 1.31 nM
89 | – | > 1000 | COc1ccc(C(=O)Nc2ccnc3sc4c(=O)n(C5CCCCC5)cnc4c23)cc1 [73F] | –
90 | – | < 50 | Cc1ccc(-n2cnc3c(sc4ncnc(N(C)C)c43)c2=O)cn1 [95O] | –
91 | > 1000 | – | CN(C)c1cccc2sc3c(=O)n(-c4cc(Cl)cc(Cl)c4)cnc3c12 [103K] | –
92 | – | < 50 | CCN(C)c1ncnc2sc3c(=O)n(-c4ccc(SC)cc4)cnc3c12 [95L] | –
93 | – | 50 to 150 | CC1CCCC(C)N1n1cnc2c(sc3nccc(N(C)C)c32)c1=O (stereo not drawn) [60F] | –
94 | 50 to 150 | – | Cc1ccc(-n2cnc3c(sc4cnnc(N(C)C)c43)c2=O)cc1 [167B] | –
95 | – | > 1000 | O=c1c2sc3nccc(NC4Cc5ccccc5C4)c3c2ncn1C1CCCCC1 [72D] | –
96 | – | > 1000 | CN(C)c1cncc2sc3c(=O)n(-c4ccc(O)cc4)cnc3c12 [37H] | –
97 | > 1000 | – | COCCn1cnc2c(sc3ncnc(N(C)C)c32)c1=O [95EA] | –
